Among the data in ChEMBL document CHEMBL1149454, “Synthesis and in vitro antitubercular activity of some 1-[(4-sub)phenyl]-3-(4-{1-[(pyridine-4-carbonyl)hydrazono]ethyl}phenyl)thiourea” (Bioorg Med Chem Lett, 2006) are MIC, IC50 and Selectivity index values, retold here.

≈ marks a conversion by molar mass, not a printed value.

Experiment [1] concerns Mycobacterium tuberculosis. Put plainly: Antibacterial activity against Mycobacterium tuberculosis H37Rv. The experiment is classed as functional.
Experiment [2] has as its system Vero. Put plainly: Inhibition of mammalian Vero cell viability at 6.25 and 62.5 ug/ml by MTT assay. The format is functional, cell-based. The conditions noted are these: Chlorocebus sabaeus. (In general: Formazan colour is commonly taken as a measure of viable cells.)
The test system of experiment [3] is Vero. Put plainly: Selectivity index as ratio of IC50 over MIC. The experiment is classed as functional.

One may read the MIC as the smallest concentration in the dilution series that meets the test's criterion for growth inhibition. Lower therefore signals a more susceptible organism. What is called IC50 is the point on the concentration scale where inhibition reaches its midpoint. Read a high IC50 as weaker potency in that assay. In experiment [1], `C/C(=N/NC(=O)c1ccncc1)c1ccc(N/C(S)=N/c2ccccc2)cc1` yielded an MIC of 4 µM (≈ 1.56 µg/mL). Further, in the experiment on Vero [2], the IC50 came out at 160 µM.
For `NNC(=O)c1ccncc1` [ISONIAZID] the same measures were 1.46 µM (≈ 0.2 µg/mL) and greater than 455 µM.
For `C/C(=N/NC(=O)c1ccncc1)c1ccc(N/C(S)=N/c2ccc(Br)cc2)cc1` the same measures were 1.66 µM (≈ 0.778 µg/mL) and 133 µM.
Taken in the same sequence, the figures for `COc1ccc(N/C(S)=N\c2ccc(/C(C)=N\NC(=O)c3ccncc3)cc2)cc1` were 0.47 µM (≈ 0.197 µg/mL) and greater than 149 µM.
In experiment [1], `CCOc1ccc(N/C(S)=N\c2ccc(/C(C)=N\NC(=O)c3ccncc3)cc2)cc1` showed a minimum inhibitory concentration (MIC) of 0.89 µM (≈ 0.386 µg/mL). In addition, it took 144 µM to reach half-maximal inhibition in the experiment on Vero [2] (IC50).
The molecule `C/C(=N/NC(=O)c1ccncc1)c1ccc(N/C(S)=N/c2ccc(C)cc2)cc1` gave an MIC in experiment [1] of 1.93 µM (≈ 0.779 µg/mL). Also, half-maximal inhibition with Vero [2] (IC50) required 155 µM.
`C/C(=N/NC(=O)c1ccncc1)c1ccc(N/C(S)=N/c2ccc(F)cc2)cc1` displayed an MIC in experiment [1] of 0.49 µM (≈ 0.2 µg/mL). The same molecule returned an IC50 in the experiment on Vero [2] greater than 153 µM. Besides, the Selectivity index with Vero [3] is recorded as greater than 312.
